Laboratory results from patent US5919668A, “Non-reducing saccharide and its production and use” (Kabushiki Kaisha Hayashibara Seibutsu Kagaku Kenkyujo, priority 1994, dated 1999).
“Also recorded” adds a separate entry of the source.

Key:
[1] = system: beta-amylase; assay: Degradation by beta-amylase; format: biochemical
Excerpt: Considering the reaction characteristics of glucoamylase, these saccharides very likely bear structures where glucose molecule(s) is bound to trehalose molecule via alpha1,4 or alpha-1,6 linkage: Saccharide PI is a non-reducing saccharide with a glucose polymerization degree of 3 where one glucose molecule is bound to one trehalose molecule; saccharide PII, another non-reducing saccharide with a glucose polymerization degree of 4 where two glucose molecules are bound to one trehalose molecule; saccharide PIII, still another non-reducing saccharide with a glucose polymerization degree of 5 where three glucose molecules are bound to one trehalose molecule; saccharide PIV, still another non-reducing saccharide with a glucose polymerization degree of 6 where four glucose molecules are bound to one trehalose molecule; and saccharide PV, still another non-reducing saccharide with a polymerization degree of 7 where five glucose molecules are bound to one trehalose molecule.

[2] = system: rice alpha-glucosidase; assay: Degradation by rice alpha-glucosidase; format: biochemical; conditions: for Glucose in degradation product by alpha-glucosidase / Others in degradation product by alpha-glucosidase / Trehalose in degradation product by alpha-glucosidase: pH4.0, 37° C., 18 hours
Experimental: (§1) The non-reducing saccharide preparations PI, PII, PIII, PIV and PV as substrates prepared in Experiment 4 were subjected to pig pancreas alpha-amylase, rice alpha-glucosidase and acetone-pulverized rat small intestine enzyme, all of which were products of Sigma Chemical Co., St Louis, Mo., USA, and the degradation products were analyzed on high-performance liquid chromatography for saccharide composition. The reaction by alpha-amylase was carried out by dissolving 10 mg of either substrate in 1 ml of 50 mM phosphate buffer (pH6.9), adding thereto one unit of alpha-amylase and incubating at 37° C. for 18 hours. The reaction by alpha-glucosidase was conducted similarly as in the case of alpha-amylase except that 50 mM acetate buffer (pH4.0) was used. In the case of acetone-pulverized rat small intestine enzyme, the reaction was conducted similarly as in the case of alpha-amylase except that 50 mM maleic acid buffer (pH6.0) was used.

[3] = Maillard reaction (coloration with glycine, absorbance at 480 nm); format: physicochemical; conditions: for Coloration degree relative to maltooligosaccharides as material: 480 nm, with glycine
Experimental: Solutions of 10% saccharide preparation PI, PII, PIII, PIV or PV prepared in Experiment 4 and 1% glycine in 50 mM phosphate buffer (pH7.0) were incubated at 100° C. for 90 minuets, cooled and determined in 1 cm cuvette for absorbance at 480 nm. As control, maltotriose, maltotetraose, maltopentaose, maltohexaose and maltoheptaose which were used as the starting materials were treated similarly as above and determined for absorbance at 480 nm.
10% High-purity trehalose preparation, purity of 99.5%, obtained by the method in Experiment 17 and 1% glycine in 50 mM phosphate buffer (pH7.0) was incubated at 100° C. for 90 minutes, cooled and measured in lcm cuvette for absorbance at 480 nm. As control, glucose and maltose were treated similarly as above and then measured for absorbance at 480 nm.

[4] = system: glucoamylase; assay: Enzymatic hydrolysis by glucoamylase; format: biochemical; conditions: for Molar ratio (glucose/trehalose): degradation product by glucoamylase; for Glucose in degradation product by glucoamylase / Trehalose in degradation product by glucoamylase: pH4.5, 40° C., 6 hours
Experimental: Fifty milligrams of the non-reducing saccharide preparation PI, PII, PIII, PIV or PV prepared in Experiment 4 was dissolved in 1 ml of 50 mM acetate buffer (pH4.5), added with one unit of the glucoamylase commercialized by Seikagaku Corp., Tokyo, Japan, incubated at 40° C. for 6 hours for enzymatic hydrolysis and analyzed for degradation products on high-performance liquid chromatography, thus detecting glucose and trehalose as sole products. The noted glucose contents, trehalose contents and their molar ratios were as shown in Table 5.

[5] = system: acetone-pulverized rat small intestine enzyme; assay: Degradation by acetone-pulverized rat small intestine enzyme; format: biochemical; conditions: for Glucose in degradation product by acetone-powdered rat small intestine enzyme / Others in degradation product by acetone-powdered rat small intestine enzyme / Trehalose in degradation product by acetone-powdered rat small intestine enzyme: pH6.0, 37° C., 18 hours
Experimental: as §1

[6] = system: pig pancreas alpha-amylase; assay: Degradation by pig pancreas alpha-amylase; format: biochemical; conditions: for G1 (glucose) in degradation product by alpha-amylase / G2 (maltose) in degradation product by alpha-amylase / G3 (maltotriose) in degradation product by alpha-amylase / PI in degradation product by alpha-amylase / PII in degradation product by alpha-amylase: pH6.9, 37° C., 18 hours
Experimental: as §1

[7] = system: pig kidney trehalase; assay: Degradation by pig kidney trehalase; format: biochemical; conditions: trehalose, or trehalose formed from PI-PV; pH5.7, 37° C., 18 hours for the latter
Experimental: In order to purify trehalose from respective reaction products, they were decolored, deionized, concentrated and subjected to column fractionation on a strongly-acidic cation exchange of sodium form "XT-1016", followed by recovering high-purity fractions with trehalose contents of 97% or higher. The fractions were then concentrated to about 65% and allowed to standing at 25° C. for 2 days to crystallize out crystalline trehalose hydrate which was then separated and dried in vacuo to obtain a high-purity preparation with a trehalose content of 99% or higher. The yields against respective starting substrates on dry solid basis were as follows: from glycosyl trehalose, 9.5%; from maltosyl trehalose, 14.9%; from maltotriosyl trehalose, 16.0%; from maltotetraosyl trehalose, 18.5%; and from maltopentaosyl trehalose, 17.7%. […] As evident from the above results, the saccharides formed by subjecting alpha-glycosyl trehaloses to the trehalose-releasing enzyme were identified to be trehalose.

[8] = system: mice; assay: Acute toxicity test, oral administration in mice; format: in vivo; conditions: for LD50: mouse, in vivo, po; for Animal death at the possible highest dose: oral, mice
Experimental: Acute toxicity tests were conducted on the non-reducing saccharide preparations PI, PII, PIII, PIV and PV prepared in Experiment 4, where they were orally administered to 7 week-old dd mice. […] Thus the LD50 of these saccharides was at least 50 g/kg or higher.
An acute toxicity test was conducted on a high-purity trehalose preparation obtained by the method in Experiment 17, purity of 99.5%, where it was orally administered in mice. […] Thus its LD50 would be briefly 50 g/kg or higher.

[9] = Reducing power by the Somogyi-Nelson method, represented in terms of DE; format: physicochemical; conditions: high-purity preparations, Somogyi-Nelson method
Experimental: The high-purity preparations of the newly formed saccharides were determined for reducing power by the Somogyi-Nelson method and represented in terms of DE.

Row | SMILES | Degradation by beta-amylase (in words) [1] | Degradation by alpha-glucosidase (in words) [2] | Glucose in degradation product by alpha-glucosidase [2] [%] | Others in degradation product by alpha-glucosidase [2] [%] | Trehalose in degradation product by alpha-glucosidase [2] [%] | Coloration degree relative to maltooligosaccharides as material [3] | Degradation by glucoamylase (in words) [4] | Molar ratio (glucose/trehalose) [4] | Glucose in degradation product by glucoamylase [4] [%] | Trehalose in degradation product by glucoamylase [4] [%] | Degradation by acetone-pulverized rat small intestine enzyme (in words) [5] | Glucose in degradation product by acetone-powdered rat small intestine enzyme [5] [%] | Others in degradation product by acetone-powdered rat small intestine enzyme [5] [%] | Trehalose in degradation product by acetone-powdered rat small intestine enzyme [5] [%] | Degradation by alpha-amylase (in words) [6] | G1 (glucose) in degradation product by alpha-amylase [6] [%] | G2 (maltose) in degradation product by alpha-amylase [6] [%] | G3 (maltotriose) in degradation product by alpha-amylase [6] [%] | PI in degradation product by alpha-amylase [6] [%] | PII in degradation product by alpha-amylase [6] [%] | other results
1 | OC[C@H]1O[C@H](O[C@H]2O[C@H](CO)[C@@H](O[C@H]3O[C@H](CO)[C@@H](O[C@H]4O[C@H](CO)[C@@H](O[C@H]5O[C@H](CO)[C@@H](O[C@H]6O[C@H](CO)[C@@H](O[C@H]7O[C@H](CO)[C@@H](O)[C@H](O)[C@H]7O)[C@H](O)[C@H]6O)[C@H](O)[C@H]5O)[C@H](O)[C@H]4O)[C@H](O)[C@H]3O)[C@H](O)[C@H]2O)[C@H](O)[C@@H](O)[C@@H]1O [PV, alpha-maltopentaosyl trehalose] | two maltose molecules and one saccharide PI molecule | degradable | 71.4 | 0.3 | 28.3 | 3-6% | five glucose molecules and one trehalose molecule | 5.11 | 72.9 | 27.1 | degradable | 73.4 | 0.1 | 26.5 | degraded by alpha-amylase into smaller oligosaccharides; also recorded: yields non-reducing saccharide PII and maltotriose as predominant products | 1.0 | 8.6 | 35.3 | 10.2 | 44.9 | Degradation by pig kidney trehalase (in words) [7]: degradable into glucose by the trehalase; LD50 [8]: at least 50 g/kg; Animal death at the possible highest dose [8]: no animal death was observed; DE of saccharide preparation [9]: 0.23
2 | OC[C@H]1O[C@H](O[C@H]2O[C@H](CO)[C@@H](O[C@H]3O[C@H](CO)[C@@H](O[C@H]4O[C@H](CO)[C@@H](O[C@H]5O[C@H](CO)[C@@H](O[C@H]6O[C@H](CO)[C@@H](O)[C@H](O)[C@H]6O)[C@H](O)[C@H]5O)[C@H](O)[C@H]4O)[C@H](O)[C@H]3O)[C@H](O)[C@H]2O)[C@H](O)[C@@H](O)[C@@H]1O [PIV, alpha-maltotetraosyl trehalose] | one maltose molecules and one saccharide PII molecule | degradable | 69.5 | 0.3 | 30.2 | 3-6% | four glucose molecules and one trehalose molecule | 4.09 | 68.3 | 31.7 | degradable | 68.8 | 0.4 | 30.8 | degraded by alpha-amylase into smaller oligosaccharides | 1.6 | 7.5 | 40.4 | 47.2 | 3.3 | Degradation by pig kidney trehalase (in words) [7]: degradable into glucose by the trehalase; LD50 [8]: at least 50 g/kg; Animal death at the possible highest dose [8]: no animal death was observed; DE of saccharide preparation [9]: 0.27
3 | OC[C@H]1O[C@H](O[C@H]2O[C@H](CO)[C@@H](O[C@H]3O[C@H](CO)[C@@H](O[C@H]4O[C@H](CO)[C@@H](O)[C@H](O)[C@H]4O)[C@H](O)[C@H]3O)[C@H](O)[C@H]2O)[C@H](O)[C@@H](O)[C@@H]1O [PII, alpha-maltosyl trehalose] | not degraded | degradable | 52.1 | 0.3 | 47.6 | 3-6% | two glucose molecules and one trehalose molecule; also recorded: one trehalose molecule and two glucose molecules | 2.06 | 52.0 | 48.0 | degradable | 52.5 | 0.4 | 47.1 | hardly degraded by alpha-amylase | 0 | 0.8 | 0.4 | 0 | 98.8 | Coloration degree at 480 nm ([3]; 10% saccharide, 1% glycine, 50 mM phosphate buffer pH7.0, 100° C., 90 minutes, 1 cm cuvette): 0.018; Degradation by pig kidney trehalase (in words) [7]: degradable into glucose by the trehalase; Animal death at the possible highest dose [8]: no animal death was observed; DE of saccharide preparation [9]: 0.35
